Test results from ChEMBL document CHEMBL1149525, “Synthesis and evaluation of anilinohexafluoroisopropanols as activators/modulators of LXRalpha and beta” (Bioorg Med Chem Lett, 2006).

Experiments:
[1] = target: T1, Oxysterols receptor LXR-alpha (Homo sapiens, UniProt Q13133)
T1 sequence (Q13133 whole entry): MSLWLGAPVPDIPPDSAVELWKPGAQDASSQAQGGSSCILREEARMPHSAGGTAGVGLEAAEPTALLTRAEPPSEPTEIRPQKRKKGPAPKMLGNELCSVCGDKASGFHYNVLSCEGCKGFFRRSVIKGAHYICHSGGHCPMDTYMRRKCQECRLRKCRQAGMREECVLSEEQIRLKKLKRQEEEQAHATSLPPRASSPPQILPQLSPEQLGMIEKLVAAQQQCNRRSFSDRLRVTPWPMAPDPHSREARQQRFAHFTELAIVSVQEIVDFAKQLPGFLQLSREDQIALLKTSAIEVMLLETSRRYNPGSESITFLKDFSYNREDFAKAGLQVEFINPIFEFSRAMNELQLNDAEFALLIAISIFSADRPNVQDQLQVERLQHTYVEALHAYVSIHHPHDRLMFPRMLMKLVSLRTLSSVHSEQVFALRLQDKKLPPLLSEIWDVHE

[2] = target: T1, Oxysterols receptor LXR-alpha; remark: listed apart in the source
[3] = target: T2, Oxysterols receptor LXR-beta (Homo sapiens, UniProt P55055)
T2 sequence (P55055 whole entry): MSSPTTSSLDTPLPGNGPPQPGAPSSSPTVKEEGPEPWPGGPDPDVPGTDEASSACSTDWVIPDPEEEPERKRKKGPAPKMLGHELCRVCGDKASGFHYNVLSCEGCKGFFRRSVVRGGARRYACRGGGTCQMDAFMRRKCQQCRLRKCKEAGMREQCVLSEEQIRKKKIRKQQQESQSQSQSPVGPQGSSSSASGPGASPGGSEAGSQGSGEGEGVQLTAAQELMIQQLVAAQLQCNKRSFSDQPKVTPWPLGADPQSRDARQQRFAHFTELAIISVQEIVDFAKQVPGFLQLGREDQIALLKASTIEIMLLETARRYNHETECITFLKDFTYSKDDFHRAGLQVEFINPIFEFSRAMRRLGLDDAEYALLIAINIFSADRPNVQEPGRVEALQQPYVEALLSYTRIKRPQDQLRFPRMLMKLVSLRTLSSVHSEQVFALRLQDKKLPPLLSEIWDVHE

Mus musculus [4] = experiment: Decrease in plasma triglyceride level in C57BL/6J mouse after 5 days at 10 mg/kg/day relative to control; type: functional; set-up: scale not given: the % may be the effect or the level left
[5] = Plasma concentration in C57BL/6J mouse after 5 days at 10 mg/kg/day; type: ADME, organism-based
Mus musculus [6] = experiment: Increase in liver triglyceride level in C57BL/6J mouse after 5 days at 10 mg/kg/day relative to control; type: functional
Mus musculus [7] = experiment: Increase in plasma HDL-C level in C57BL/6J mouse after 5 days at 10 mg/kg/day relative to control; type: functional
[8] = Liver concentration in C57BL/6J mouse after 5 days at 10 mg/kg/day; type: ADME, organism-based; settings: read-out: Drug uptake
[9] = target: T2, Oxysterols receptor LXR-beta; remark: listed apart in the source
Mus musculus [10] = experiment: Increase in plasma HDL-C level in C57BL/6J mouse after 5 days at 100 mg/kg/day relative to control; type: functional
Mus musculus [11] = experiment: Increase in liver triglyceride level in C57BL/6J mouse after 5 days at 100 mg/kg/day relative to control; type: functional
Mus musculus [12] = experiment: Increase in plasma triglyceride level in C57BL/6J mouse after 5 days at 100 mg/kg/day relative to control; type: functional
[13] = Plasma concentration in C57BL/6J mouse after 5 days at 100 mg/kg/day; type: ADME, organism-based
[14] = Liver concentration in C57BL/6J mouse after 5 days at 100 mg/kg/day; type: ADME, organism-based; settings: read-out: Drug uptake
Mus musculus [15] = experiment: Decrease in plasma triglyceride level in C57BL/6J mouse after 5 days at 100 mg/kg/day relative to control; type: functional; set-up: scale not given: the % may be the effect or the level left

SMILES | IC50 [1] [nM] | EC50 [2] [nM] | other results
CCN(Cc1ccccn1)c1ccc(C(O)(C(F)(F)F)C(F)(F)F)cc1 | 1500 | 700 | –
CCN(Cc1nc(-c2cccc(C(F)(F)F)c2)oc1C)c1ccc(C(O)(C(F)(F)F)C(F)(F)F)cc1 | 6 | 200 | EC50 [3]: 60 nM; Activity (Mus musculus [4]): 12%; concentration at 120 h [5]: 700 ng/mL; Activity (Mus musculus [6]): 70%; Activity (Mus musculus [7]): 35%; concentration at 120 h [8]: 8200 ng/g; IC50 [9]: 3 nM
CCN(Cc1cscn1)c1ccc(C(O)(C(F)(F)F)C(F)(F)F)cc1Cl | 20 | 500 | –
Cc1oc(-c2cccc(C(F)(F)F)c2)nc1CN(CC(F)(F)F)c1ccc(C(O)(C(F)(F)F)C(F)(F)F)cc1 | 13 | 700 | –
CCN(Cc1nc(-c2cccc(Cl)c2)oc1C)c1ccc(C(O)(C(F)(F)F)C(F)(F)F)cc1Cl | 2 | 300 | –
CCN(Cc1cccnc1)c1ccc(C(O)(C(F)(F)F)C(F)(F)F)cc1 | 2700 | 4300 | –
CCN(Cc1nc(-c2cccc(C(F)(F)F)c2)oc1C)c1ccc(C(O)(C(F)(F)F)C(F)(F)F)cc1Cl | 6 | 100 | –
OC(c1ccc(N(Cc2ccccc2)CC(F)(F)F)c(Cl)c1)(C(F)(F)F)C(F)(F)F | 1 | 100 | –
CCN(CCc1ccccc1)c1ccc(C(O)(C(F)(F)F)C(F)(F)F)cc1Cl | 6 | 800 | –
Cc1oc(-c2cccc(Cl)c2)nc1CN(CC(F)(F)F)c1ccc(C(O)(C(F)(F)F)C(F)(F)F)cc1 | 30 | 1000 | –
CCN(c1ccc(C(O)(C(F)(F)F)C(F)(F)F)cc1)C(C)(C(=O)N(C)C)c1ccccc1 (racemic) | 200 | 400 | –
CCN(c1ccc(C(O)(C(F)(F)F)C(F)(F)F)cc1)C(COCC(=O)N(C)C)c1ccccc1 (racemic) | 900 | 800 | –
CCN(c1ccc(C(O)(C(F)(F)F)C(F)(F)F)cc1Cl)C(COc1ccc(C(=O)OC)cc1)c1ccccc1 (racemic) | 60 | 700 | –
CCN(c1ccc(C(O)(C(F)(F)F)C(F)(F)F)cc1)C(C(=O)NC)c1ccccc1 (racemic) | 11200 | 10900 | –
CCN(c1ccc(C(O)(C(F)(F)F)C(F)(F)F)cc1Cl)C(CC)(C(=O)OC)c1ccccc1 (racemic) | 60 | 500 | –
CCN(c1ccc(C(O)(C(F)(F)F)C(F)(F)F)cc1)C(COCC(=O)O)c1ccccc1 (racemic) | 61000 | 10000 | –
CCN(c1ccc(C(O)(C(F)(F)F)C(F)(F)F)cc1)C(COC)c1ccccc1 (racemic) | 400 | 900 | –
CCN(c1ccc(C(O)(C(F)(F)F)C(F)(F)F)cc1)C(COCc1ccccc1)c1ccccc1 (racemic) | 200 | 1900 | –
CCN(c1ccc(C(O)(C(F)(F)F)C(F)(F)F)cc1)C(C)(C(=O)OC)c1ccccc1 (racemic) | 50 | 100 | EC50 [3]: 30 nM; Activity (Mus musculus [10]): 12%; Activity (Mus musculus [11]): 520%; Activity (Mus musculus [15]): 11%; IC50 [9]: 8 nM; concentration at 120 h [13]: 2300 ng/mL; concentration at 120 h [14]: 6300 ng/g
CCN(c1ccc(C(O)(C(F)(F)F)C(F)(F)F)cc1Cl)C(COc1ccc(CC(=O)OC)cc1)c1ccccc1 (racemic) | 200 | 1100 | –
CCN(c1ccc(C(O)(C(F)(F)F)C(F)(F)F)cc1)C(CC)(C(=O)OC)c1ccccc1 (racemic) | 50 | 300 | –
CCN(c1ccc(C(O)(C(F)(F)F)C(F)(F)F)cc1Cl)C(COc1ccc(CCC(=O)O)cc1)c1ccccc1 (racemic) | 60 | 4500 | –
CCN(c1ccc(C(O)(C(F)(F)F)C(F)(F)F)cc1)C(COCC(=O)NC)c1ccccc1 (racemic) | 18000 | > 40000 | –
CCN(c1ccc(C(O)(C(F)(F)F)C(F)(F)F)cc1Cl)C(COc1ccc(C(=O)O)cc1)c1ccccc1 (racemic) | 100 | 3700 | –

The next lines start with results.

IC50 [1] [nM] | EC50 [2] [nM] | SMILES | other results
1700 | 2100 | CCN(Cc1ccncc1)c1ccc(C(O)(C(F)(F)F)C(F)(F)F)cc1 | –
70 | 900 | OC(c1ccc(N(Cc2ccccc2)CC(F)(F)F)cc1)(C(F)(F)F)C(F)(F)F | –
120 | 1000 | CCN(CCc1ccccc1)c1ccc(C(O)(C(F)(F)F)C(F)(F)F)cc1 | –
3 | 200 | CCN(Cc1ccccc1)c1ccc(C(O)(C(F)(F)F)C(F)(F)F)cc1Cl | EC50 [3]: 80 nM; Activity (Mus musculus [10]): 23%; Activity (Mus musculus [11]): 28%; Activity (Mus musculus [12]): 7%; IC50 [9]: 3 nM; concentration at 120 h [13]: 3400 ng/mL; concentration at 120 h [14]: 13000 ng/g
50 | 1100 | CCN(Cc1ccccc1)c1ccc(C(O)(C(F)(F)F)C(F)(F)F)cc1 | –
600 | 3300 | CCN(Cc1cscn1)c1ccc(C(O)(C(F)(F)F)C(F)(F)F)cc1 | –
100 | 5500 | CCN(c1ccc(C(O)(C(F)(F)F)C(F)(F)F)cc1Cl)C(COc1ccc(CC(=O)O)cc1)c1ccccc1 (racemic) | –
100 | 1400 | CCN(c1ccc(C(O)(C(F)(F)F)C(F)(F)F)cc1Cl)C(COc1ccc(CCC(=O)OC)cc1)c1ccccc1 (racemic) | –
12000 | > 40000 | CCN(c1ccc(C(O)(C(F)(F)F)C(F)(F)F)cc1)C(COCCO)c1ccccc1 (racemic) | –
700 | 2300 | CCN(c1ccc(C(O)(C(F)(F)F)C(F)(F)F)cc1)C(C(=O)OC)c1ccccc1 (racemic) | –
5200 | 9400 | CCN(c1ccc(C(O)(C(F)(F)F)C(F)(F)F)cc1)C(C(=O)O)c1ccccc1 (racemic) | –
13800 | 9300 | CCN(c1ccc(C(O)(C(F)(F)F)C(F)(F)F)cc1)C(C(=O)N(C)C)c1ccccc1 (racemic) | –
60 | 90 | COC(=O)C1(c2ccccc2)CCCCN1c1ccc(C(O)(C(F)(F)F)C(F)(F)F)cc1 (racemic) | –
50 | 200 | COC(=O)C1(c2ccccc2)CCCN1c1ccc(C(O)(C(F)(F)F)C(F)(F)F)cc1 (racemic) | –
600 | 2200 | CCN(c1ccc(C(O)(C(F)(F)F)C(F)(F)F)cc1)C(COCC(=O)OC)c1ccccc1 (racemic) | –
5400 | 8500 | CCN(c1ccc(C(O)(C(F)(F)F)C(F)(F)F)cc1)C(C(=O)N1CCOCC1)c1ccccc1 (racemic) | –
